The test concerns the target T1, endothelin-converting enzyme (ECE) (Homo sapiens, UniProt P42892).
T1 sequence (P42892 1-770): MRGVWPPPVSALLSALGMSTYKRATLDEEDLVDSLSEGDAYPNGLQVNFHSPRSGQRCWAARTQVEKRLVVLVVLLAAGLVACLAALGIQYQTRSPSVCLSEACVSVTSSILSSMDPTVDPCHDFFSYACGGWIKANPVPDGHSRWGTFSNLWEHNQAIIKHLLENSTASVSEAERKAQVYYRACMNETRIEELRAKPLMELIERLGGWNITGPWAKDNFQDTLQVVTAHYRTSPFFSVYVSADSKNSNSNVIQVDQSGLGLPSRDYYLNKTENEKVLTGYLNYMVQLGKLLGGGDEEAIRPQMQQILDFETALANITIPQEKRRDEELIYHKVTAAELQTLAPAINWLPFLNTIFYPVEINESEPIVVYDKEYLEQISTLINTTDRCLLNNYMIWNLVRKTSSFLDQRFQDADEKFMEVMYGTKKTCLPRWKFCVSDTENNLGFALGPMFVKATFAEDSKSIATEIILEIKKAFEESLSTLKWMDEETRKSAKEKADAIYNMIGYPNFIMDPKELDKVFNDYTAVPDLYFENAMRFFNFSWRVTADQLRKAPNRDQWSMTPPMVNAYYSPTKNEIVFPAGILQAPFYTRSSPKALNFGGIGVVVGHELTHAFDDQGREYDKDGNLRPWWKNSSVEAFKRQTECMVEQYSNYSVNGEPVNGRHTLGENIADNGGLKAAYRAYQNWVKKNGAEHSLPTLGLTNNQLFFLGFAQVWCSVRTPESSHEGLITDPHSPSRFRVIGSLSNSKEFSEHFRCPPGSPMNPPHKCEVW
Nature of the test: Determination of the inhibitory activity of the endothelin-converting enzyme (ECE), cleavage of (2,3-3H)propionyl-b-ET-1(19-35). The note with it: purified ECE, pre-incubation 30 minutes at 37° C., Tris maleate buffer pH=6.5, incubation one hour at 37° C.; read-out: IC50 (concentration which causes a 50% inhibition of ECE). It is filed as biochemical. From the text: A test is used, in which the product (2,3-^3H)propionyl-b-ET-1(19-35) prepared as indicated below in a) is cleaved by ECE into the product (2,3-^3H)propionyl-b-ET-1(19-21) in the presence of product P of which the inhibitory activity of ECE one wishes to determine as indicated below in b): the inhibitory activity of ECE of the product P will therefore be accordingly as high as the quantity of product of formula (II) formed, determined by counting the radioactivity, will be low. The operation is carried out as follows:
10 μl of ECE i.e. 1 to 2 μg of purified ECE are pre-incubated for 30 minutes at 37° C., in 400 μl of a 50 mM Tris maleate buffer pH=6.5, 20 μl of 5M sodium chloride and 5 μl of product P the inhibitory activity of which one wishes to test, in solution at different concentrations (comprised between […]) (i.e. final concentrations in product P of 10 nM to 1 mM).
The reaction is initiated by the addition of 10 μl of (2,3-^3H)propionyl-b-ET-1(19-35) prepared as indicated above in a), at a final concentration of 1.8.10^−12M.
After incubation for one hour at 37° C., the reaction is stopped by the addition of 600 μl of ethyl acetate and the (2,3-^3H)propionyl-b-ET-1(19-21) is extracted by mechanical agitation for 2 minutes.
300 μl of the organic phase is removed, 5 ml of liquid scintillator is added and the radioactivity is counted for 1 minute with a liquid scintillation counter.
Each measurement is carried out in triplicate except for the ECE control (control enzyme, without the product the ECE inhibitory activity of which one wishes to test), for which the measurement is carried out six times.
The percentage inhibition is calculated by establishing the relationship: [formula]
The blank is carried out starting with the solution obtained without enzyme.
From the cpm's obtained and by plotting the graph of the percentage of inhibition relative to the concentration of inhibitor (nM), the IC50 is calculated which therefore corresponds to the concentration which causes a 50% inhibition of ECE.
In the case of `N#Cc1ccccc1-c1ccc(CC(C(=O)O)C(=O)N[C@@H](CS)Cc2ccccc2)cc1` (mixture of isomers) [Example 4, 2′-cyano-alpha-[[[1-(mercaptomethyl)-2-phenylethyl]amino]carbonyl]-(1,1′-biphenyl)-4-propanoic acid], the IC50 was found to be 30 nM.

With `O=C(CCCCCCCCCCOc1ccccc1)N[C@@H](CS)Cc1ccccc1` [Example 6], the IC50 amounted to 220 nM.

As for `N#Cc1ccccc1-c1ccc(CC(C(=O)O)C(=O)NC(CS)Cc2ccc(OS(=O)(=O)C(F)(F)F)cc2)cc1` (stereo not drawn) [Example 10, 2′-Cyano-alpha-[[[1-(mercaptomethyl) 2-(paratrifluoromethylsulphonyloxy)phenylethyl]amino]carbonyl](1,1′-biphenyl) 4-propanoic acid], the IC50 came out at 150 nM.

Values taken from US6420341B1, “Sulphur derivatives with a retroamide bond as endothelin-converting enzyme inhibitors” (Aventis Pharma S.A., priority 1996, dated 2002).
